From patent US6441042B1 (dated 2002) come the findings set out here.

Regarding `CCCC[C@H](CC(=O)NO)C(=O)N[C@H](C(=O)N(C)C)C(C)(C)C`, the melting point lay within 165 to 166 °C.
For the molecule `CCC[C@H](CC(=O)NO)C(=O)N[C@H](C(=O)NC)C(C)(C)C`, the melting point was determined as 200 °C.

The melting point is the temperature of the solid-liquid transition.
